Entries after “also recorded” stand apart in the source; their conditions may differ. Structures can show the parent of a compound that is named as a salt.
Tests used:
[1] = system: copulating activity of male rats; assay: rat copulating behaviour in state of physiological depression; format: in vivo, Wistar rats
Protocol: The pharmacological effects of GBB, THP and their combination on the sexual activity of mammals was investigated by a model based on rat copulating behaviour in state of physiological depression.
Experiments were conducted on adult Wistar rats of both sexes with initial body weight of 300-330 g. During the experiment, the animals were kept in standard crates in groups of 6. The feed was a standartized diet R70 (LABFOR, Lactamin AB, Sweden). The room temperature was kept at 21-23° C., relative humidity at 65±10%, 12 hour light/darkness cycle. During one week before the experiment it was established that the average water consumption by the rats was 8.2-12% (average —10%) of their body mass.
Male rats were distributed randomly into 4 groups, each of 6 animals, and supplied for 6 weeks with the following aqueous solutions:
Group 1 (Control Group)—ding water without any additives;
Group 2 (GBB Group)—drinking water was supplemented by gamma-butyrobetaine (0.015% by weight), resulting in the average daily gamma-butyrobetaine intake of 15 mg/kg;
Group 3 (THP Group)—drinking water was supplemented by THP (0.06% by weight), resulting in the average daily THP intake of 60 mg/kg;
Group 4 (GBB+THP Group)—drinking water was supplemented by THP (0.06% by weight) and gamma-butyrobetaine (0.015% by weight), resulting in the average daily […]) intake of 60 mg/kg and gamma-butyrobetaine intake of 15 mg/kg.
The copulating activity of male rats was tested four times: after one week, after four weeks, after six weeks and 48-50 hours after the discontinuation of substance intake, when all animals were receiving drinking water without additives.
The tests were conducted between 10 and 12 a.m. 6 male rats of one group were placed into a clean, well illuminated crate (box). After 5 min. adaptation period 2 female rats were placed into the box for 10 minutes. For each male rat the following data were collected:
1) copulating intensity (number of copulations during the exposition period);
3) postcoital period—the behaviour of male rats during 5 min. period after the removal of females. The postcoital behaviour was characterized by following marks: 0—the animal is passive, lays down; 1—the rat is quiet; grooming; 2—the rat is mobile, rutting; 3—the animal is active, aggressive.
The female rats used were in the estrus phase, induced by i.p. injection of 0.2 ml 0.1% estradiol dipropionate 48 h before the test.

[2] = subc.; cited from earlier work
[3] = system: intracavernous pressure (corpus cavernosum penis); assay: intracavernous pressure in narcotized rats, intravenous injection; format: in vivo; conditions: for effect on intracorporeal pressure (in words): intravenous; for Duration of effect / Changes of intracavernous pressure / Reflectory increase of intracavernous pressure: intravenously: GBB 2.0 mg/kg, THP 10.0 mg/kg, sildenafil 3.0 mg/kg, papaverine 2.0 mg/kg
Protocol: Adult male rats, weighing 300-410 g were used. The influence of the experimental substances on the penile erection was evaluated using the experimental model, where changes of intracorporeal pressure was measured (Chen K K et al. J Urol, 1992;147:1124). Rats were anesthetized by sodium pentobarbital (50 mg/kg i.p. plus additionally 8 mg/kg/h i.v.). Body temperature was kept at 37-37.4° C. (rectal control) by heating lamp. Endotracheal tube was inserted to assure adequate respiration under anesthesia. Number 25 needle filled with heparinized saline was connected to pressure transducer and introduced into corpus cavernosum penis. Intracavernous pressure and II standard lead on an ECG was continuously recorded on physiograph DMP-4B (Narco Bio-Systems, USA). In some experiments arterial pressure in common carotid artery was also recorded. The effects of experimental substances were determined both at intravenous and intracavernous introduction route. For the intracorporeal injection the substances were dissolved in isotonic (0.9%) NaCl solution and the dose introduced in 0.05 ml of liquid. […] Gamma-butyrobetaine (GBB) was introduced separately and in combination with THP or phosphodiesterase inhibitor, in particular, sildenafil. Gamma-butyrobetaine (GBB) (intracavernous injection 0.02-0.1 mg per rat, usually 0.05 mg per rat; intravenously 2.0 mg/kg) and THP (intracavernous injection 0.2 mg per rat; intravenously 10.0 mg/kg) were introduced separately and as combination (GBB+THP). […] Since the intracavernous injection is not popular due to inconvenience to patient, intravenous route was selected for further evaluation.

[4] = system: intracorporeal pressure (corpus cavernosum penis); assay: intracorporeal pressure in narcotized rats, intracavernous injection; format: in vivo; conditions: for Increase of intracorporeal pressure, % of papaverine: in % of the increase produced by papaverine
Protocol: The influence of the experimental substances on the penile erection was evaluated using the experimental model, where changes of intracorporeal pressure was measured (Chen K K et al. J Urol, 1992;147:1124). Rats were anesthetized by sodium pentobarbital (50 mg/kg i.p. plus additionally 8 mg/kg/h i.v.). Body temperature was kept at 37-37.4° C. (rectal control) by heating lamp. Endotracheal tube was inserted to assure adequate respiration under anesthesia. Number 25 needle filled with heparinized saline was connected to pressure transducer and introduced into corpus cavernosum penis. Intracavernous pressure and II standard lead on an ECG was continuously recorded on physiograph DMP-4B (Narco Bio-Systems, USA). In some experiments arterial pressure in common carotid artery was also recorded. The effects of experimental substances were determined both at intravenous and intracavernous introduction route. For the intracorporeal injection the substances were dissolved in isotonic (0.9%) NaCl solution and the dose introduced in 0.05 ml of liquid. […] Gamma-butyrobetaine (GBB) was introduced separately and in combination with THP or phosphodiesterase inhibitor, in particular, sildenafil. Gamma-butyrobetaine (GBB) (intracavernous injection 0.02-0.1 mg per rat, usually 0.05 mg per rat; intravenously 2.0 mg/kg) and THP (intracavernous injection 0.2 mg per rat; intravenously 10.0 mg/kg) were introduced separately and as combination (GBB+THP).

[5] = 1 week of therapy, drinking water, GBB 15 mg/kg daily, THP 60 mg/kg daily
[6] = 1 week of therapy, drinking water, GBB 15 mg/kg daily, THP 60 mg/kg daily, 10 min exposition
[7] = 4 weeks of therapy, behaviour marks 0-3
[8] = 4 weeks of therapy, drinking water, GBB 15 mg/kg daily, THP 60 mg/kg daily
[9] = 6 weeks of therapy, behaviour marks 0-3
[10] = 6 weeks of therapy, drinking water, GBB 15 mg/kg daily, THP 60 mg/kg daily
[11] = Post-therapy (48-50 hours after discontinuation)
[12] = Post-therapy (48-50 hours after discontinuation), behaviour marks 0-3

With `C[N+](C)(C)CCCC(=O)[O-]` [GBB, gamma-butyrobetaine] the “delay time before attempts of mounting” value [1, 5] was 3.7 ± 0.9 min, the number of copulations [1, 6] was 0.8 ± 0.3 and the “rat post-coital agitation period” value [1, 7] was 1.2 ± 0.3. The number of copulations [1, 8] was 1.3 ± 0.5, the “number of mounting attempts of male rats” value [1, 8] was 3.7 ± 0.7 and the “rat post-coital agitation period” value [1, 9] was 1.5 ± 0.4. The “delay time before attempts of mounting” value [1, 10] was 2.8 ± 0.9 min, the “number of mounting attempts of male rats” value [1, 10] was 3.3 ± 0.6 and the “delay time before attempts of mounting” value [1, 11] was 2.6 ± 0.6 min. The number of copulations [1, 11] was 0.7 ± 0.2, the “number of mounting attempts of male rats” value [1, 11] was 3.2 ± 0.5 and the “rat post-coital agitation period” value [1, 12] was 1.2 ± 0.3. For the same molecule, the LD50 [2] was 7000 mg/kg, the “effect on intracorporeal pressure (in words)” value (“effect … (in words)” below) [3] was “highly efficient” and the Duration of effect [3] was 2.8 ± 0.7 min. For the same molecule, the “effect … (in words)” value [4] was “pronounced dose-dependent, but relatively short-termed increase; also recorded: inferior to that of papaverine”, the “Increase of intracorporeal pressure, % of papaverine” value (“Increase … % of papaverine” for short) ([4]; dose 0.02 mg per rat) was 30.6% and the “Increase of intracorporeal pressure” value ([4]; dose 0.05 mg per rat) was 31.5 ± 5.1 mmHg. The “Increase … % of papaverine” value ([4]; dose 0.05 mg per rat) was 85.7%.

In the case of `COc1ccc(Cc2nccc3cc(OC)c(OC)cc23)cc1OC` [Papaverine, Papaverine hydrochloride], the “effect … (in words)” value [3] is reported as “little effect”, the “Changes of intracavernous pressure” value [3] is reported as 0.6 ± 0.6 mm Hg and the Duration of effect [3] is reported as 0.9 ± 0.9 min. For the same molecule, the “Reflectory increase of intracavernous pressure” value [3] was 0.3 ± 0.3 mm Hg, the Duration of effect ([4]; dose 0.2 mg per rat) was 8.8 ± 1.4 min and the “Increase of intracorporeal pressure” value ([4]; dose 0.2 mg per rat) was 36.75 ± 4.1 mmHg. The “Increase … % of papaverine” value ([4]; dose 0.2 mg per rat) was 100%.

For `CCCc1nn(C)c2c(=O)[nH]c(-c3cc(S(=O)(=O)N4CCN(C)CC4)ccc3OCC)nc12` [Sildenafil, sildenafil], the Duration of effect [3] was 2.5 ± 1.1 min, the Duration of effect ([4]; dose 0.15 mg per rat) was 7.5 ± 2.7 min and the “Increase of intracorporeal pressure” value ([4]; dose 0.15 mg per rat) was 38.5 ± 7.3 mmHg. The “Increase … % of papaverine” value ([4]; dose 0.15 mg per rat) was 104.8%.

With `C[N+](C)(C)NCCC(=O)[O-]` [THP, 3-(2,2,2-trimethylhydrazinium)propionate] the “rat post-coital agitation period” value ([1]; 1 week of therapy, behaviour marks 0-3 during 5 min after removal of females) was 1.0 ± 0.4, the “delay time before attempts of mounting” value [1, 5] was 5.3 ± 1.0 min and the number of copulations [1, 6] was 0.5 ± 0.3. For the same molecule, the “number of mounting attempts of male rats” value [1, 6] was 2.7 ± 0.6, the “rat post-coital agitation period” value [1, 7] was 1.4 ± 0.5 and the “delay time before attempts of mounting” value [1, 8] was 2.1 ± 0.5 min. The number of copulations [1, 8] was 1.2 ± 0.4, the “number of mounting attempts of male rats” value [1, 8] was 3.0 ± 0.7 and the “rat post-coital agitation period” value [1, 9] was 1.8 ± 0.3. The “delay time before attempts of mounting” value [1, 10] was 2.3 ± 0.5 min, the number of copulations [1, 10] was 0.8 ± 0.3 and the “number of mounting attempts of male rats” value [1, 10] was 3.7 ± 0.5. For the same molecule, the “delay time before attempts of mounting” value [1, 11] was 2.4 ± 0.7 min, the number of copulations [1, 11] was 1.0 ± 0.3 and the “number of mounting attempts of male rats” value [1, 11] was 3.4 ± 0.7. For the same molecule, the “rat post-coital agitation period” value [1, 12] was 1.2 ± 0.4, the “effect … (in words)” value [3] was “little effect” and the “Changes of intracavernous pressure” value [3] was 1.3 ± 0.9 mm Hg. For the same molecule, the Duration of effect [3] was 0.9 ± 0.5 min, the “Reflectory increase of intracavernous pressure” value [3] was 2.7 ± 1.2 mm Hg and the “effect … (in words)” value [4] was “did not produce significant changes”. The “Increase … % of papaverine” value ([4]; dose 0.2 mg per rat) was 7.3%.
